Paper PMC5517430, “2,3,7,8-Tetrachlorodibenzo-p-dioxin (TCDD)-elicited effects on bile acid homeostasis: Alterations in biosynthesis, enterohepatic circulation, and microbial metabolism” (Scientific Reports, 2017)

Legend:
liver of C57BL/6 mice [1] = experiment: Histopathological scoring of liver sections; type: in vivo, mouse; design: Fibrosis (periportal), Mean Grade / Vacuolation (centrilobular), Mean Grade / Necrosis; Inflammatory cell foci, Mean Grade / Bile duct proliferation, Mean Grade: scale not given here; conditions: for Bile duct proliferation, Mean Grade / Fibrosis (periportal), Mean Grade / Necrosis; Inflammatory cell foci, Mean Grade / Vacuolation (centrilobular), Mean Grade: mean ±SD; for Dose at which hepatocyte vacuolization (fatty change) was first observed / Doses at which minimal to slight hepatocyte necrosis and inflammatory cell infiltration were present: every 4 d for 28 d
Protocol: Postnatal day 25 (PND25) male C57BL/6 mice weighing within 10% of each other were obtained from Charles River Laboratories (Kingston, NY) and housed in Innovive Innocages (San Diego, CA) containing ALPHA-dri bedding (Shepherd Specialty Papers, Chicago, IL) in a 23 °C environment with 30–40% humidity and a 12-hour light/dark cycle (7am–7 pm). Mice were provided Aquavive water (Innovive) and Harlan Teklad 22/5 Rodent Diet 8940 (Madison, WI) ad libitum, and were acclimated for […] prior to treatment. Beginning on PND28, animals (n = 8; co-housed 4 per cage) were orally gavaged with sesame oil vehicle (Sigma-Aldrich, St. Louis, MO), 0.01, 0.03, 0.1, 0.3, 1, 3, 10, or 30 μg/kg TCDD (AccuStandard, New Haven, CT) every 4d for a total of 28d (7 exposures; Supplementary Fig. S3). The doses used compensate for the relatively short study duration compared to lifelong cumulative human exposure from diverse AhR ligands, the bioaccumulative nature of halogenated AhR ligands, and differences in TCDD’s metabolism and half-life (humans: 1–11 years, [61], mice: 8–12d[62]). TCDD doses between 0.01 and 30 µg/kg result in mouse hepatic tissue levels that span human background serum concentrations reported in the United States, Germany, Spain, and the United Kingdom as well as serum levels in Viktor Yushchenko 4–39 months following intentional poisoning. For the histopathological comparison, female C57BL/6 mice were orally gavaged with sesame oil vehicle or 0.01–30 µg/kg TCDD every 4d for 28d, as previously described. All animal handling procedures were performed with the approval of the Michigan State University (MSU) Institutional Animal Care and Use Committee, in accordance with the relevant ethical guidelines and regulations.
(§1) All processing was performed by the MSU Investigative Histopathology Laboratory (https://humanpathology.natsci.msu.edu/). Formalin-fixed hepatic tissues were vacuum infiltrated with paraffin using a Tissue-Tek VIP 2000 tissue processor (Sakura) and embedded with the Thermo Fisher HistoCentre III Embedding Center (Thermo Fisher, Waltham, Massachusetts). Paraffin blocks were sectioned at 4–5 µm with a Reichert Jung 2030 rotary microtome (Reichert, Depew, New York) and dried for 2–24 h at 56 °C to ensure adherence to the slides. For lipid staining, liver sections frozen in O.C.T. compound were sectioned at 6 µm, fixed in 10% NBF for 5 min, rinsed with water, and immersed in 100% propylene glycol for 5 min. Liver sections were stained with hematoxylin and eosin (H&E) for general histological assessment. Lipids were stained using Oil Red O (ORO) as previously described. Macrophages were labeled using a monoclonal anti-mouse F4/80 antibody (1:100 dilution; AbD Serotec, Raleigh, NC). Collagen was stained with 0.1% Picro-Sirius Red (PSR) dye, with Weigert’s Hematoxylin nuclear dye. Histological assessment of hepatic tissue from female C57BL/6 mice was performed as previously described, [32].

liver of C57BL/6 mice [2] = experiment: QuHAnT quantitation of Oil Red O staining (hepatic fat accumulation); type: in vivo, mouse; conditions: 30 µg/kg TCDD every 4 d for 28 d
Protocol: as §1, with “Macrophages were labeled using a monoclonal anti-mouse F4/80 antibody (1:100 dilution; AbD Serotec, Raleigh, NC). Collagen was stained with 0.1% Picro-Sirius Red (PSR) dye, with Weigert’s Hematoxylin nuclear dye. Histological assessment of hepatic tissue from female C57BL/6 mice was performed as previously described, [32].” left out
Quantitation of ORO staining was performed using the Quantitative Histological Analysis Tool (QuHAnT)[66]. […] Using ImageJ (http://rsb.info.nih.gov.ij/), optimal hue, saturation, and value (HSV) image segmentation thresholds for feature extraction were determined to be 0 to 50 and 225 to 255 (hue), 125 to 255 (saturation), and 0 to 255 (value), while optimal total tissue feature extraction thresholds were 0 to 255 (hue), 20 to 255 (saturation), and 0 to 255 (value). […]

[3] = female, 0.3 µg/kg TCDD every 4 d for 28 d
[4] = female, 1 µg/kg TCDD every 4 d for 28 d
[5] = female, 3 µg/kg TCDD every 4 d for 28 d
[6] = female, 10 µg/kg TCDD every 4 d for 28 d
[7] = female, 30 µg/kg TCDD every 4 d for 28 d
[8] = male, 0.3 µg/kg TCDD every 4 d for 28 d
[9] = male, 1 µg/kg TCDD every 4 d for 28 d
[10] = male, 3 µg/kg TCDD every 4 d for 28 d
[11] = male, 10 µg/kg TCDD every 4 d for 28 d
[12] = male, 30 µg/kg TCDD every 4 d for 28 d

`Clc1cc2c(cc1Cl)Oc1cc(Cl)c(Cl)cc1O2` [TCDD, 2,3,7,8-tetrachlorodibenzo-p-dioxin] was tested, and the “Inflammation surrounding the bile ducts (pericholangitis)” value (liver of C57BL/6 mice [1]; 30 µg/kg TCDD every 4 d for 28 d, male vs female) was “exclusive to males”, the “Bile duct proliferation, Incidence” value (liver of C57BL/6 mice [1]; [3]) was 0/8 and the “Fibrosis (periportal), Incidence” value (liver of C57BL/6 mice [1]; [3]) was 0/8. For the same molecule, the “Necrosis; Inflammatory cell foci, Incidence” value (“Necrosis … Incidence” for short) (liver of C57BL/6 mice [1]; [3]) was 0/8, the “Vacuolation (centrilobular), Incidence” value (liver of C57BL/6 mice [1]; [3]) was 0/8 and the “Bile duct proliferation, Incidence” value (liver of C57BL/6 mice [1]; [4]) was 0/6. The “Fibrosis (periportal), Incidence” value (liver of C57BL/6 mice [1]; [4]) was 0/6, the “Necrosis … Incidence” value (liver of C57BL/6 mice [1]; [4]) was 0/6 and the “Vacuolation (centrilobular), Incidence” value (liver of C57BL/6 mice [1]; [4]) was 0/6. The “Bile duct proliferation, Incidence” value (liver of C57BL/6 mice [1]; [5]) was 0/6, the “Fibrosis (periportal), Incidence” value (liver of C57BL/6 mice [1]; [5]) was 0/6 and the “Necrosis … Incidence” value (liver of C57BL/6 mice [1]; [5]) was 0/6. The “Vacuolation (centrilobular), Incidence” value (liver of C57BL/6 mice [1]; [5]) was 0/6, the “Bile duct proliferation, Incidence” value (liver of C57BL/6 mice [1]; [6]) was 0/4 and the “Fibrosis (periportal), Incidence” value (liver of C57BL/6 mice [1]; [6]) was 0/4. The “Necrosis … Incidence” value (liver of C57BL/6 mice [1]; [6]) was 0/4, the “Vacuolation (centrilobular), Incidence” value (liver of C57BL/6 mice [1]; [6]) was 1/4 and the “Bile duct proliferation, Incidence” value (liver of C57BL/6 mice [1]; [7]) was 1/4. The “Fibrosis (periportal), Incidence” value (liver of C57BL/6 mice [1]; [7]) was 1/4, the “Necrosis … Incidence” value (liver of C57BL/6 mice [1]; [7]) was 1/4 and the “Vacuolation (centrilobular), Incidence” value (liver of C57BL/6 mice [1]; [7]) was 4/4. For the same molecule, the “Bile duct proliferation, Mean Grade” value (liver of C57BL/6 mice [1]; [7]) was 0.3 ± 0.5, the “Fibrosis (periportal), Mean Grade” value (liver of C57BL/6 mice [1]; [7]) was 0.3 ± 0.5 and the “Necrosis; Inflammatory cell foci, Mean Grade” value (shortened to “Necrosis … Mean Grade”) (liver of C57BL/6 mice [1]; [7]) was 0.3 ± 0.5. For the same molecule, the “Vacuolation (centrilobular), Mean Grade” value (liver of C57BL/6 mice [1]; [7]) was 2.0 ± 1.2, the “Dose at which hepatocyte vacuolization (fatty change) was first observed” value (liver of C57BL/6 mice [1]; females) was 10 µg/kg and the “Doses at which minimal to slight hepatocyte necrosis and inflammatory cell infiltration were present” value (liver of C57BL/6 mice [1]; females) was 30 µg/kg. For the same molecule, the “Bile duct proliferation, Incidence” value (liver of C57BL/6 mice [1]; [8]) was 0/8, the “Fibrosis (periportal), Incidence” value (liver of C57BL/6 mice [1]; [8]) was 0/8 and the “Necrosis … Incidence” value (liver of C57BL/6 mice [1]; [8]) was 0/8. The “Vacuolation (centrilobular), Incidence” value (liver of C57BL/6 mice [1]; [8]) was 1/8, the “Vacuolation (centrilobular), Mean Grade” value (liver of C57BL/6 mice [1]; [8]) was 0.1 ± 0.4 and the “Bile duct proliferation, Incidence” value (liver of C57BL/6 mice [1]; [9]) was 0/8. The “Fibrosis (periportal), Incidence” value (liver of C57BL/6 mice [1]; [9]) was 0/8, the “Necrosis … Incidence” value (liver of C57BL/6 mice [1]; [9]) was 0/8 and the “Vacuolation (centrilobular), Incidence” value (liver of C57BL/6 mice [1]; [9]) was 5/8. The “Vacuolation (centrilobular), Mean Grade” value (liver of C57BL/6 mice [1]; [9]) was 0.9 ± 0.8, the “Bile duct proliferation, Incidence” value (liver of C57BL/6 mice [1]; [10]) was 0/8 and the “Fibrosis (periportal), Incidence” value (liver of C57BL/6 mice [1]; [10]) was 0/8. The “Necrosis … Incidence” value (liver of C57BL/6 mice [1]; [10]) was 2/8, the “Vacuolation (centrilobular), Incidence” value (liver of C57BL/6 mice [1]; [10]) was 6/8 and the “Necrosis … Mean Grade” value (liver of C57BL/6 mice [1]; [10]) was 0.3 ± 0.5. The “Vacuolation (centrilobular), Mean Grade” value (liver of C57BL/6 mice [1]; [10]) was 1.0 ± 0.8, the “Bile duct proliferation, Incidence” value (liver of C57BL/6 mice [1]; [11]) was 0/8 and the “Fibrosis (periportal), Incidence” value (liver of C57BL/6 mice [1]; [11]) was 0/8. The “Necrosis … Incidence” value (liver of C57BL/6 mice [1]; [11]) was 6/8, the “Vacuolation (centrilobular), Incidence” value (liver of C57BL/6 mice [1]; [11]) was 8/8 and the “Necrosis … Mean Grade” value (liver of C57BL/6 mice [1]; [11]) was 0.8 ± 0.5. The “Vacuolation (centrilobular), Mean Grade” value (liver of C57BL/6 mice [1]; [11]) was 3.0 ± 0.5, the “Bile duct proliferation, Incidence” value (liver of C57BL/6 mice [1]; [12]) was 5/8 and the “Fibrosis (periportal), Incidence” value (liver of C57BL/6 mice [1]; [12]) was 5/8. The “Necrosis … Incidence” value (liver of C57BL/6 mice [1]; [12]) was 8/8, the “Vacuolation (centrilobular), Incidence” value (liver of C57BL/6 mice [1]; [12]) was 8/8 and the “Bile duct proliferation, Mean Grade” value (liver of C57BL/6 mice [1]; [12]) was 0.9 ± 0.8. The “Fibrosis (periportal), Mean Grade” value (liver of C57BL/6 mice [1]; [12]) was 0.6 ± 0.5, the “Necrosis … Mean Grade” value (liver of C57BL/6 mice [1]; [12]) was 1.3 ± 0.5 and the “Vacuolation (centrilobular), Mean Grade” value (liver of C57BL/6 mice [1]; [12]) was 4.0 ± 0.0. For the same molecule, the “Dose at which hepatocyte vacuolization (fatty change) was first observed” value (liver of C57BL/6 mice [1]; males) was 0.3 µg/kg, the “Doses at which minimal to slight hepatocyte necrosis and inflammatory cell infiltration were present” value (liver of C57BL/6 mice [1]; males) was ≥ 3 µg/kg and the “Hepatic fat accumulation (ORO), males compared to females” value (liver of C57BL/6 mice [2]) was 6.2 fold.
